A short description of series [1]: Aβ peptide aggregation in solution followed by turbidity (optical density). It counts as physicochemical. The following applies: about 100 μM peptide in PBS pH 7.4, stirring about 600 rpm, about 37° C., after 120 minutes. The method, then: FIG. 2A is a graph indicating the Aβ peptide aggregation structure progress in solution. […] The solution absorbency measurement is observed as a change in optical densities (D.O.), which reflects formation of complex structures, amyloid aggregates. Images B-D correspond to ultra micro photographs obtained with an electronic microscope. The recognition of different structures formed during the aggregation process is possible. Aggregates obtained at 120 min and fibers obtained at 5 days of aggregation are readily noticed.
In order to generate the working solution, these portions are defrosted under a laminar flow bell and diluted in sterile PBS at pH 7.4. 700 μl PBS are added to the 25 μl of each peptide portion, obtaining a final work volume of 725 μl, with peptide at an approximate concentration of 100 μM. This peptide solution is defined as “Soluble Peptide” and it is mainly formed by Aβ peptide monomers. This soluble peptide is induced to aggregation by stirring at approximately 600 rpm at temperature around 37° C. During this process, the solution optical density is determined at 405 nm every 15 minutes for a total time of 120 minutes. […] This solution is called “Aggregate Peptide”, and electronic microscope inspection has determined that it corresponds to a heterogeneous structure population, among which amorphous aggregate shapes, 100 nm protofibril, and short fibers are noted.

For another series, the system named is neurons. Description: whole-cell patch clamp, membrane potential. Format: cell-based, mice. The following applies: low concentrations (preferably less than 1 μM, more preferably 0.5 μM Aβ). On the technique in general: Patch clamp records ionic current or voltage across a cell membrane.
Series [2] relates to plasma membrane of hippocampal neurons. The series is described as follows: cell-attached to perforated patch-clamp recording with the agent in the glass pipette. It counts as cell-based, mice. Here is the method:
In absence of Aβ or gramicidin, cell attached recordings are stable for more than 60 min.
Control is the charge in cell-attached configuration and reflects the recording of the glass pipette properties partially compensated to visualize part of the transient. Negative pressure reflects the charge obtained with a routine whole-cell configuration. Gramicidin and amphotericin are antibiotics routinely used to generate perforates. Data are ±S.E. average (n=6; different experiments).
The experimental evidence of the invention allows establishing that conductance changes may be the result of the forming of a cationic-type pore, very similar to that generating gramicidin. […] Basically, this invention procedure is formed by two stages: • b) Exposing a small area or patch of plasma membrane, in a preferable embodiment said membranes are neuron membranes, to peptide aggregates under study and/or to active ingredients, and/or compounds of interest. • c) Determining, measuring, and quantifying electric parameters of membranes exposed to these aggregates; in a preferable embodiment, the parameter is conductance (inverse of electrical resistance resulting from resistance range and the glass pipette potential).
The method described in this invention uses a variation of the technique known as patch cell-attached to study the Aβ peptide effects. In this invention embodiment, records very stable in time are obtained and maintained for more than 5 minutes, preferably for more than 15 minutes, and more preferably for more than 30 minutes. At the same time, this embodiment provides an intrinsic noise level under 5 pA, preferably under 3 pA, and more preferably under 1 pA, which may be due to the registry being obtained from a small cell area that normally contains very few ionic channels. […] However, the most important characteristics in this event is the evidence of the fast capacitative resistance component, which reflects formation of a perforated form that supports the conclusion that pores are generated in the membrane (see FIGS. 1 and 2).
Animals are treated and handled according to the NIH recommendations. 18-day pregnant mice (C57BL7J6) are anesthetized with ether and sacrificed through cervical dislocation. Embryo are quickly removed and beheaded with sterile material. Brains are removed and kept in cold Hank medium.
The midbrain is separated in order to expose the hippocampus area, which is dissected from the brain and mechanically dispersed using trypsin, collagenase, and DNAsa III. Neurons are placed (“planted”) in 35 mm dishes covered with poly-L-lisine at a density of 350000 neurons per ml.
Neurons are left to grow in vitro during 12 days, and then recorded using electro-physiology. The means of culture is 80% MEM, 2 mM glutamine, and 10% bovine fetal serum. The means are changed every three days. Every reagent used is dissolved in PBS, which is used as control.
Peptide aggregates are diluted to working concentration and were made at concentrations from 0.01 μM to 50 μM, preferably between 0.03 and 20, more preferably 0.05 and 10 μM. This aggregate is diluted in an internal solution (called so because it artificially imitates intra-cell fluid) mainly formed by KCl, BAPTA, calcium, and ATP, as previously described. The aggregate is diluted in this solution, which is loaded into the pipette to be used for Patch-Clamp. This solution is taken into a tuberculin syringe, from which the needle has been removed, and a small capillary-HPLC is added. With this modified syringe, the internal solution volume is taken with no Aβ aggregates as control. It may also be used with the aggregate and/or other molecules of biologic interest in the event evaluations and determining the said molecules' pharmacologic activities is required.
Using the capillary-HPLC in the syringe, the internal solution is introduced into the glass pipette, slowly removing it as the pipette becomes full in order to reduce bubbles. […]

The subject of another series is AMPA and NMDA receptors. The following applies: reported in the art; cited from earlier work.

For the compound “Aβ: Synthetic peptide Aβ1-40 (TOCRIS or Sigma), human sequence of β-amyloid peptide, aggregated by stirring at 37° C.”, the “solution optical density at 405 nm” value in series [1] is given as 0.2-0.3. Further, the “changes in membrane potential” value with neurons is listed as “have not shown significant changes in membrane potential”. In series [2] (500 nM in the glass pipette solution, FIG. 1A), the “conversion of the cell-attached recording into a perforated recording (increased capacitative peak and late conductance)” value is “spontaneously convert the recording into a perforated variation of the technique”. Moreover, the “charge transferred by the cellular membrane during a 10 mV pulse” value in series [2] (FIG. 3, n=6) is “form perforations in the membrane”. Further, the “input current following the high-resistance seal formation” value in series [2] (in the presence of Aβ) is −40 to −70 pA. Also, in series [2] (low-concentration peptide, few pores in the cell), the current range is at most 50 pA. Besides, in series [2] (measurements and recordings of the invention method), the membrane de-polarization entry was “has not been detected”.

As to `N#Cc1cc2[nH]c(=O)c(=O)[nH]c2cc1[N+](=O)[O-]` [CNQX], the “inhibition of peptide effects on calcium levels” value in the series with AMPA and NMDA receptors is reported as “inhibited”.

As to gramicidin, in series [2] (50 μM in the glass pipette, FIG. 1B), the development of perforation entry is recorded as “typical perforation”.

The values above are taken from patent publication US8609361B2, “Real time electrophysiological testing of agents of interest for treatment of amyloid-type diseases” (Universidad de Concepcion, priority 2007, dated 2013).
